{
  "source": "patent US7820829B2",
  "about": "“Bisbenzisoselenazolonyl derivatives having antineoplastic, anti-inflammatory and antithrombotic activities as well as their use” (Peking University, priority 2001, dated 2010)",
  "key": {"HL-60": {"tested_on": "HL-60", "assay": "E003 in combination with other antineoplastic agents on growth of cancer cell", "assay_type": "cell-based, human", "settings": "HL-60, 24 h"}, "thrombosis": {"tested_on": "thrombosis", "assay": "Electrically induced thrombosis in rat neck artery (OT value)", "assay_type": "in vivo", "settings": "male SD rats, oral 30 mg/kg, 1 hour after administration; electricity 3 mA, 180 s", "experimental": "Male SD rats (300-400 g) were randomized into a no-treatment control group (0.25% CMC), an ASA reference group (0.25% CMC, a few Tween-80) and three treatment groups (the compounds E001, E002 and E003). There are 5 animals in each group. The inventive compounds and reference drugs were orally administered respectively in amount of 30 mg/kg. The animals were anesthetized with urethane after 1 hour of the administration. The neck artery was separated surgically and OT value was measured (the stimulating conditions: electricity, 3 mA; time, 180 s)."}, "[1]": {"tested_on": "xylene-induced ear oedema", "assay": "Xylene-induced ear oedema in mice", "assay_type": "in vivo", "settings": "oral; for Inhibiting rate (%) (to aspirin): relative to aspirin 200 mg/kg; for Inhibiting rate (%) (to indomethacin): relative to indomethacin 22 mg/kg", "experimental": "The anti-inflammatory effects of the test compounds E001, E002 and E 003 were evaluated in xylene-induced ear oedema in mice. The mice were randomized into a no-treatment control group, three reference groups and three treatment groups. There are 10 animals in each group. The test compounds, saline and reference drugs (indomethacin, Aspirin and Ebselen) were orally administered respectively. Ear oedema was induced by topical administration of xylene ([…] per ear) to the inner surface of the right ear after 1 hour of the administration. After 2 hours, the mice were killed. The change in the ear's weight with diameter of 8 mm was measured with a precision micrometer. The inhibiting rate of each compound to the xylene-induced ear oedema was calculated in accordance with the ear weight and the results were listed in Table 7.\nThe procedure described in Example 8 was repeated. And the results of the experiment are shown by the following table: […]"}, "Lewis lung cancer": {"tested_on": "Lewis lung cancer", "assay": "Lewis lung cancer transplanted in C57 mice", "assay_type": "in vivo, C57 mouse", "settings": "2 mg/kg", "experimental": "Lewis lung cancer tissue was resuscitated and subcultured by standard procedure. A piece of Lewis lung cancer was transplanted into the subcutaneous space on the back of each C 57 mouse for inoculation and growth. The Lewis lung cancer cells were dispersed in saline to form a cell suspension of 10^6/ml. 0.2-0.3 ml of the suspension were inoculated into each C57 mouse Mice were randomized into three groups, 10 for each group. In the treatment group, the mice were injected i.p. with […] in amount of 50 mg/kg; in reference group, DDp, 2 mg/kg; and in the negative control group (solvent group), 0.5% CMC-Na. The total volume for every group is the same. […] was administered by i.p. from the second day of transplantation for 3 days until the mice were sacrificed. The C57 mice were disinfected with 70% alcohol. The Lewis lung cancer tissue was removed, photographed and weighted. Then, the subcutaneous tumors were fixed by formaldehyde for further analysis."}, "mice": {"tested_on": "mice", "settings": "cited from earlier work"}},
  "data": [
    {"compound": "COc1cccc2c1C(=O)c1c(O)c3c(c(O)c1C2=O)C[C@@](O)(C(=O)CO)C[C@@H]3O[C@H]1C[C@H](N)[C@H](O)[C@H](C)O1", "note": "[Adriamycin]", "values": [
      {"measurement": "inhibition at 0.1 µg/mL", "setting": "HL-60; Homo sapiens, Adriamycin alone 0.1 mg/L, read-out: Inhibition rate", "result": "-7 ± 0.7", "unit": "%"}
    ]},
    {"compound": "CC(=O)Oc1ccccc1C(=O)O", "note": "[Aspirin]", "values": [
      {"measurement": "Average OT value", "setting": "thrombosis", "result": 588.2, "unit": "s"},
      {"measurement": "Ear oedema %", "setting": "[1]; Example 8, mice, 200 mg/kg", "result": 10.63, "unit": "%"},
      {"measurement": "Ear oedema %", "setting": "[1]; Example 11, mice, 200 mg/kg", "result": 10.27, "unit": "%"}
    ]},
    {"compound": "CC(=O)OC[C@H]1OC(OC(C)=O)[C@H](n2[se]c3ccccc3c2=O)[C@@H](OC(C)=O)[C@@H]1OC(C)=O", "note": "(stereo partly drawn) [Compound E001, 2-(1,3,4,6-tetra-O-acetyl-2-deoxy-D-glucopyranosyl)-(1,2)-benzisoselenazol-3(2H)-one]", "values": [
      {"measurement": "Average OT value", "setting": "thrombosis", "result": 561.2, "unit": "s"},
      {"measurement": "Ear oedema %", "setting": "[1]; Example 8, mice, 50 mg/kg", "result": 4.81, "unit": "%"},
      {"measurement": "Inhibiting rate (%) (to aspirin)", "setting": "[1]; Example 8, mice, 50 mg/kg", "result": "54.75 (to aspirin) %"},
      {"measurement": "Inhibiting rate (%) (to indomethacin)", "setting": "[1]; Example 8, mice, 50 mg/kg", "result": "75.81 (to indomethacin) %"}
    ]},
    {"compound": "N.N.[Cl][Pt][Cl]", "note": "[DDP, Cisplatin]", "values": [
      {"measurement": "tumor volume, average", "setting": "Lewis lung cancer", "result": 473, "unit": "mm^3"},
      {"measurement": "Inhibition rate", "setting": "HL-60; Cisplatin alone 0.5 μmol/L", "result": "0.067 ± 0.014"},
      {"measurement": "Inhibition rate", "setting": "HL-60; Cisplatin alone 5 μmol/L", "result": "0.12 ± 0.032"}
    ]},
    {"compound": "O=c1c2ccccc2[se]n1-c1ccccc1", "note": "[Ebselen, 2-phenyl-(1,2)-benzisoselenazol-3(2H)-on]", "values": [
      {"measurement": "LD50", "setting": "mice", "result": "> 6810", "unit": "mg/kg"},
      {"measurement": "Ear oedema %", "setting": "[1]; Example 8, mice, 50 mg/kg", "result": 6.22, "unit": "%"},
      {"measurement": "Inhibiting rate (%) (to aspirin)", "setting": "[1]; Example 8, mice, 50 mg/kg", "result": "41.48 (to aspirin) %"},
      {"measurement": "Inhibiting rate (%) (to indomethacin)", "setting": "[1]; Example 8, mice, 50 mg/kg", "result": "68.72 (to indomethacin) %"}
    ]},
    {"compound": "COc1ccc2c(c1)c(CC(=O)O)c(C)n2C(=O)c1ccc(Cl)cc1", "note": "[Indomethacin]", "values": [
      {"measurement": "Ear oedema %", "setting": "[1]; Example 8, mice, 22 mg/kg", "result": 19.89, "unit": "%"},
      {"measurement": "Ear oedema %", "setting": "[1]; Example 11, mice, 22 mg/kg", "result": 19.12, "unit": "%"}
    ]},
    {"compound": "CC(=O)O[C@H]1C(=O)[C@@]2(C)[C@H]([C@H](OC(=O)c3ccccc3)[C@]3(O)C[C@H](OC(=O)[C@H](O)[C@@H](NC(=O)c4ccccc4)c4ccccc4)C(C)=C1C3(C)C)[C@]1(OC(C)=O)CO[C@@H]1C[C@@H]2O", "note": "[Taxol]", "values": [
      {"measurement": "inhibition at 0.001 µg/mL", "setting": "HL-60; Homo sapiens, Taxol alone 0.001 mg/L, read-out: Inhibition rate", "result": "2 ± 1", "unit": "%"},
      {"measurement": "inhibition at 0.01 µg/mL", "setting": "HL-60; Homo sapiens, Taxol alone 0.01 mg/L, read-out: Inhibition rate", "result": "27 ± 7.9", "unit": "%"}
    ]}
  ]
}
